Assay results taken from patent US20230257761A1, “HERBICIDE RESISTANT PLANT” (INSTITUTE OF GENETICS AND DEVELOPMENTAL BIOLOGY, CHINESE …, priority 2019, published 2023).

Tests used:
Format in all cases: in vivo
[1] = tested on: rice tissue culture seedlings; assay: Spraying of rice tissue culture seedlings with HPPD herbicide; conditions: about two weeks after spraying, ⅛ of the field concentration; for leaves and growth of overexpressing positive rice seedlings: rice overexpressing HPPD protein; for leaves of wild-type rice tissue culture seedlings: wild-type rice without resistance
Description: The rice tissue culture seedlings overexpressing HPPD protein were used as the positive control, and the wild-type rice plants of the same stage and variety were used as the negative control. Each group of 8 plants was sprayed with different concentration gradients of herbicide: mesotrione or Topramezone. […] The herbicide concentration, that is, ⅛ of the field concentration of mesotrione or Topramezone, is a suitable screening concentration. The rice plants obtained in Example 2 were treated at this screening concentration to obtain herbicide-resistant plants

[2] = tested on: rice cultivar Zhonghua 11; assay: Spraying of stems and leaves of regenerated T0 rice plants with Haloxyfop-P
Source text: According to the growth state of the regenerated plants, the T0 generation plants regenerated on the medium were placed in water for 5 to 30 days, and then the plant stems and leaves were directly sprayed with Haloxyfop-P, and the spray concentration range is between 0.1 and 2 times of the recommended concentration of commercial preparations. Four weeks after spraying, a total of 5 surviving mutants, ie, herbicide-resistant mutants, were obtained (FIG. 3).

[3] = tested on: wheat (Triticum aestivum L.); assay: Herbicide screening: imazapic added to wheat rooting medium
Description: The existing imazapic-resistant wheat plants were used as positive control, and wild-type wheat was used as negative control. Different concentrations of imazapic were added to the wheat rooting medium, and an appropriate screening concentration was found, that is, 1/15 of the concentration of imazapic used in the field.

CS(=O)(=O)c1ccc(C(=O)C2C(=O)CCCC2=O)c([N+](=O)[O-])c1 [mesotrione]
leaves and growth of overexpressing positive rice seedlings [1]: normal and grew normally | leaves of wild-type rice tissue culture seedlings [1]: turned white and then withered slowly

C[C@@H](Oc1ccc(Oc2ncc(C(F)(F)F)cc2Cl)cc1)C(=O)O [Haloxyfop-P]
number of surviving (herbicide-resistant) mutants ([2]; base-edited T0 plants, four weeks after spraying, 0.1 to 2 times the recommended concentration of commercial preparations): 5 | state of heart leaves of wild-type rice after spraying ([2]; wild-type Zhonghua No. 11 (WT), FIG. 3): dry and dead

Cc1c(C(=O)c2cnn(C)c2O)ccc(S(C)(=O)=O)c1C1=NOCC1 [Topramezone]
leaves and growth of overexpressing positive rice seedlings [1]: normal and grew normally | leaves of wild-type rice tissue culture seedlings [1]: turned white and then withered slowly

Cc1cnc(C2=NC(=O)C(C)(C(C)C)N2)c(C(=O)O)c1 (centres unmarked) [imazapic]
rooting of positive control wheat ([3]; existing imazapic-resistant (overexpression-positive) wheat, rooting medium with 1/15 of the field concentration of imazapic): grow roots normally | rooting of wild-type wheat ([3]; wild-type wheat (negative control), rooting medium with 1/15 of the concentration of imazapic used in the field): significantly inhibited
